Measurements reported in ChEMBL document CHEMBL1147319, “Spectroscopic and biological investigation of nimbolide and 28-deoxonimbolide from Azadirachta indica” (1989).
In brackets after ≈: the same amount, converted by molar mass.

Experiments:
Type in all cases: functional
[1] = test system: KB; assay: Cytotoxicity against human KB cells after 72 hrs; conditions: read-out: ED50 (the source's name)
[2] = test system: Col2; assay: Cytotoxicity against human Col2 cells after 72 hrs; conditions: Col2, 72 h, read-out: ED50 (the source's name)
[3] = test system: P388; assay: Cytotoxicity against mouse P388 cells after 48 hrs; conditions: P388, 48 h, read-out: ED50 (the source's name)
[4] = Cytotoxicity against human BC1 cells after 72 hrs; conditions: BC1, 72 h, read-out: ED50 (the source's name)
[5] = test system: Lu1; assay: Cytotoxicity against human Lu1 cells; conditions: read-out: ED50 (the source's name)
[6] = test system: HT-1080; assay: Cytotoxicity against human HT1080 cells after 48 hrs; conditions: HT-1080, 48 h, read-out: ED50 (the source's name)
[7] = test system: SK-MEL-2; assay: Cytotoxicity against human SK-MEL-2 cells after 72 hrs; conditions: SK-MEL-2, 72 h, read-out: ED50 (the source's name)

## COC(=O)C[C@H]1[C@]2(C)C3=C(C)[C@H](c4ccoc4)C[C@H]3O[C@@H]2[C@@H]2OC[C@]3(C)C=CC(=O)[C@@]1(C)[C@@H]23
[1]
  EC50: 1.3 µg/mL (≈ 2.87 µM)
[2]
  EC50: 1.81 µg/mL (≈ 4 µM)
[3]
  EC50: 0.66 µg/mL (≈ 1.46 µM)
[4]
  EC50: 1.34 µg/mL (≈ 2.96 µM)
[5]
  EC50: 0.84 µg/mL (≈ 1.86 µM)
[6]
  EC50: 1.04 µg/mL (≈ 2.3 µM)
[7]
  EC50: 2.05 µg/mL (≈ 4.53 µM)

## COC(=O)C[C@H]1[C@]2(C)C3=C(C)[C@H](c4ccoc4)C[C@H]3O[C@@H]2[C@@H]2OC(=O)[C@]3(C)C=CC(=O)[C@@]1(C)[C@@H]23 [NIMBOLIDE]
[1]
  EC50: 0.25 µg/mL (≈ 0.536 µM)
[2]
  EC50: 0.41 µg/mL (≈ 0.879 µM)
[3]
  EC50: 0.065 µg/mL (≈ 0.139 µM)
[4]
  EC50: 0.39 µg/mL (≈ 0.836 µM)
[5]
  EC50: 0.42 µg/mL (≈ 0.9 µM)
[6]
  EC50: 0.31 µg/mL (≈ 0.664 µM)
[7]
  EC50: 0.53 µg/mL (≈ 1.14 µM)
